Data published in patent US5084462A, “4-quinoline carboxylic acid derivatives useful as immunosuppressive agents” (The Du Pont Merck Pharmaceutical Company, priority 1990, dated 1992).
Like-named read-outs stand apart in the source and are kept apart here.

How the values were obtained:
[1] = tested on: contact sensitivity response to 2,4-dinitrofluorobenzene (DNFB); test: Contact sensitivity response to 2,4-dinitrofluorobenzene (DNFB) in mice; type: in vivo, Balb/c female mice; conditions: for inhibition in vivo at 1 mg/kg: 1.0 mg/kg oral; for inhibition in vivo at 0.4 mg/kg: read-out: % Suppression, Table 2, ear swelling, 0.4 mg/kg oral; for inhibition in vivo at 2 mg/kg: read-out: % Suppression, Table 2, ear swelling, 2.0 mg/kg oral
Experimental: This is an antigen-specific T-cell mediated inflammatory response that represents delayed-type hypersensitivity reactions seen in both humans and other mammals.
Balb/c female mice (.perspectiveto.20g, Charles River) were sensitized on the shaved abdomen with 25 μl of 0.5% 2,4-dinitrofluorobenzene ([…], Eastman Kodak Co.) in a vehicle of 4:1 acetone:olive oil on days 0 and 1. Mice were ear challenged with 20 μl of 0.2% DNFB in a vehicle of 4:1 acetone:olive oil on day 5. A constant area of the ears was measured immediately before challenge and 24 hours later with an engineer's micrometer. Ear swelling was expressed as the difference in ear thickness before and after challenge in units of 10^-4 inches±SEM. Percent suppression was calculated as: [formula] […] Negative controls were not sensitized on days 0 and 1 but were ear challenged on day 5. Ten mice were used per group.

[2] = tested on: human mixed lymphocyte reaction; test: Human mixed lymphocyte reaction (3H-thymidine incorporation); type: cell-based; conditions: Table 4, human PBMC of two donors, 6 days
From the text: Contact sensitivity to DNFB has teen extensively studied and characterized in the mouse to determine the regulatory mechanisms involved in cell mediated immune responses (Claman, et al., Immunol Rev 50:105, 1980). This is an antigen-specific T-cell mediated inflammatory response that represents delayed-type hypersensitivity reactions seen in both humans and other mammals. The primary use of the human mixed lymphocyte reaction is for the determination of transplantation compatibility between the donor (graft) and the recipient (Park and Good, p. 71. In Yunis, et al., Tissue typing and organ transplantation. 1973 Academic Press Inc., N.Y.).
Blood was obtained by venipuncture from two nonrelated human donors. Peripheral blood mononuclear cells (PBMC) were isolated from these samples by using the Leuco Prep procedure (Becton-Dickinson). PBMC were washed twice in phosphate buffered saline (without calcium and magnesium) and the separate cell isolations were adjusted to the appropriate concentrations in media (RPMI 1640) supplemented with 10% human AB serum and […] gentamicin. Cells from donor A (2×10^5) were incubated with cells from donor B (2×10^5) in 96 well round bottom microliter plates at 37° C., 5% CO2 for 6 days. Eighteen hours prior to harvesting cells from the plates, all wells were pulsed with 1 μCi of ^3 H-thymidine. Cells from the plates were harvested on day 6 and ^3 H-thymidine incorporation was determined using a scintillation counter.

[3] = tested on: adjuvant-induced arthritis; test: Adjuvant-induced arthritis in rats; type: in vivo, Male Lewis rats; conditions: for ED50: Rattus norvegicus, 432 h, adjuvant-induced arthritis; for Non-Injected Hind-Paw Volume / % Suppression: day 18; for % Suppression: Table 5, non-injected hind paw
Experimental: Rat adjuvant-induced arthritis represents a systemic inflammatory disease with bone and cartilage changes similar to that observed in rheumatoid arthritis, but in an accelerated time span (Pearson, Arth Rheum 7:80, 1964).
Male Lewis rats (Charles River) weighing 160-210 grams were injected subcutaneously with 0.1 ml of Freund's Complete Adjuvant containing 5 mg of M. butyricum/ml of paraffin oil (Difco Laboratories) into the plantar region of the right hind paw. Paraffin oil was injected for non-arthritic controls. Ten rats were used per group. Compounds were prepared in 0.25% Methocel® (Dow Chemical Co) with one drop of Tween® 80 per 10 ml of Methocel®. Animals were dosed every day beginning on the day of paw injection until day 18. The weight of each animal was recorded every other day beginning on the day of the paw injections. On day 18 the animals were weighed, and the non-injected hind paw volume was measured using a Ugo Basile Volume Differential Plethysmometer.

[4] = Table 5, 10 mg/kg daily to day 18
[5] = Mus musculus, po, 24 h, read-out: % Suppression, Table 2, ear swelling, 10.0 mg/kg oral
[6] = Mus musculus, po, 24 h, read-out: % Suppression, Table 2, ear swelling, 20.0 mg/kg oral
[7] = Mus musculus, po, 24 h, Table 3, ear swelling, 20.0 mg/kg oral, read-out: % Suppression

C[C@@H]1C[C@H]2[C@@H]3CCC4=CC(=O)C=C[C@]4(C)[C@@]3(F)[C@@H](O)C[C@]2(C)[C@@]1(O)C(=O)CO [Dexamethasone, reference compound]
inhibition in vivo at 0.2 mg/kg ([1]; Mus musculus, po, 24 h, Table 2, ear swelling, 0.2 mg/kg oral, read-out: % Suppression): 28.8%
inhibition in vivo at 1 mg/kg ([1]; Mus musculus, po, 24 h, Table 2, ear swelling, read-out: % Suppression): 44.3%
inhibition in vivo at 5 mg/kg ([1]; Mus musculus, po, 24 h, Table 2, ear swelling, 5.0 mg/kg oral, read-out: % Suppression): 68.6%
inhibition in vivo at 10 mg/kg ([1]; Mus musculus, po, 24 h, Table 2, ear swelling, 10.0 mg/kg oral, read-out: % Suppression): 79.9%
inhibition in vivo at 1 mg/kg ([1]; Mus musculus, po, 24 h, Table 3, ear swelling, read-out: % Suppression): 43.8%
ED50 ([1]; Mus musculus, Table 2, suppression of ear swelling, oral, days -2 through 6, read-out: ED50): 1.5 mg/kg
Ear Swelling (units ± SEM), increase in ear thickness from day 5 to day 6 ([1]; Table 2, 0.2 mg/kg oral): 52.95 ± 3.39 10^-4 inches
Ear Swelling (units ± SEM), increase in ear thickness from day 5 to day 6 ([1]; Table 2, 1.0 mg/kg oral): 41.60 ± 2.46 10^-4 inches
Ear Swelling (units ± SEM), increase in ear thickness from day 5 to day 6 ([1]; Table 2, 5.0 mg/kg oral): 23.79 ± 2.71 10^-4 inches
Ear Swelling (units ± SEM), increase in ear thickness from day 5 to day 6 ([1]; Table 2, 10.0 mg/kg oral): 15.50 ± 2.10 10^-4 inches
Ear Swelling (units ± SEM), increase in ear thickness from day 5 to day 6 ([1]; Table 3, 1.0 mg/kg oral): 42.20 ± 2.61 10^-4 inches

Cc1c(-c2ccc(-c3ccccc3)cc2)nc2cccc(Cl)c2c1C(=O)[O-].[Na+] [Example 1, Sodium 2-(1,1'-Biphenyl-4-yl)-5-chloro-3-methyl-quinoline-4-carboxylate]
IC50 [2]: 9.6 nM
ED50 ([3]; Table 5 footnote): 21 mg/kg
Weight Gain [3, 4]: -14.0 ± 4.2 g
Non-Injected Hind-Paw Volume ([3]; Table 5, 10 mg/kg daily): 1.87 ± 0.08 mL
Weight Gain ([3]; Table 5, 17.5 mg/kg daily to day 18): 2.8 ± 5.3 g
Non-Injected Hind-Paw Volume ([3]; Table 5, 17.5 mg/kg daily): 1.72 ± 0.08 mL
Weight Gain ([3]; Table 5, 25.0 mg/kg daily to day 18): 20.6 ± 6.3 g
Non-Injected Hind-Paw Volume ([3]; Table 5, 25.0 mg/kg daily): 1.34 ± 0.10 mL
% Suppression ([3]; 10 mg/kg daily): 1.4%
% Suppression ([3]; 17.5 mg/kg daily): 20.8%
% Suppression ([3]; 25.0 mg/kg daily): 70.6%
ED50 ([1]; Mus musculus, po): 3.5 mg/kg
inhibition in vivo at 0.4 mg/kg ([1]; Mus musculus, po, 24 h): 11%
inhibition in vivo at 2 mg/kg ([1]; Mus musculus, po, 24 h): 23.4%
inhibition in vivo at 10 mg/kg [1, 5]: 92.7%
inhibition in vivo at 20 mg/kg [1, 6]: 93.9%
Ear Swelling (units ± SEM), increase in ear thickness from day 5 to day 6 ([1]; Table 2, 0.4 mg/kg oral): 66.05 ± 4.32 10^-4 inches
Ear Swelling (units ± SEM), increase in ear thickness from day 5 to day 6 ([1]; Table 2, 2.0 mg/kg oral): 56.94 ± 4.80 10^-4 inches
Ear Swelling (units ± SEM), increase in ear thickness from day 5 to day 6 ([1]; Table 2, 10.0 mg/kg oral): 6.10 ± 0.75 10^-4 inches
Ear Swelling (units ± SEM), increase in ear thickness from day 5 to day 6 ([1]; Table 2, 20.0 mg/kg oral): 5.20 ± 1.17 10^-4 inches

Cc1c(-c2ccc(-c3ccccc3F)cc2)nc2ccc(F)cc2c1C(=O)[O-].[Na+] [Example 2, Sodium 2-(2'-Fluoro-1,1'-biphenyl-4-yl)-6-fluoro-3-methylquinoline-4-carboxylate]
IC50 [2]: 25 nM
ED50 ([3]; Table 5 footnote): < 10 mg/kg
Weight Gain ([3]; Table 5, 2.0 mg/kg daily to day 18): -1.5 ± 3.6 g
Non-Injected Hind-Paw Volume ([3]; Table 5, 2.0 mg/kg daily): 1.62 ± 0.05 mL
Weight Gain [3, 4]: 65.6 ± 5.2 g
Non-Injected Hind-Paw Volume ([3]; Table 5, 10 mg/kg daily): 1.15 ± 0.02 mL
% Suppression ([3]; 2.0 mg/kg daily): 34.5%
% Suppression ([3]; 10 mg/kg daily): 96.2%
Toxicity ([3]; Table 5 footnote, 25.0 mg/kg daily): Toxic by day 7
ED50 ([1]; Mus musculus, po): 0.95 mg/kg
inhibition in vivo at 0.4 mg/kg ([1]; Mus musculus, po, 24 h): 30.2%
inhibition in vivo at 2 mg/kg ([1]; Mus musculus, po, 24 h): 66.1%
inhibition in vivo at 10 mg/kg [1, 5]: 92.3%
inhibition in vivo at 20 mg/kg [1, 6]: 94.5%
Ear Swelling (units ± SEM), increase in ear thickness from day 5 to day 6 ([1]; Table 2, 0.4 mg/kg oral): 51.95 ± 2.33 10^-4 inches
Ear Swelling (units ± SEM), increase in ear thickness from day 5 to day 6 ([1]; Table 2, 2.0 mg/kg oral): 25.61 ± 3.39 10^-4 inches
Ear Swelling (units ± SEM), increase in ear thickness from day 5 to day 6 ([1]; Table 2, 10.0 mg/kg oral): 6.40 ± 1.09 10^-4 inches
Ear Swelling (units ± SEM), increase in ear thickness from day 5 to day 6 ([1]; Table 2, 20.0 mg/kg oral): 4.75 ± 1.20 10^-4 inches

Cc1c(-c2ccc(Oc3ccccc3)cc2)nc2ccc(F)cc2c1C(=O)O [Example 3]
inhibition in vivo at 20 mg/kg [1, 7]: 83.5%
Ear Swelling (units ± SEM), increase in ear thickness from day 5 to day 6 ([1]; Table 3, 20.0 mg/kg oral): 14.25 ± 1.49 10^-4 inches

Cc1c(-c2ccc(-c3ccc(Br)cc3)cc2)nc2ccc(F)cc2c1C(=O)O [Example 4]
inhibition in vivo at 20 mg/kg [1, 7]: 87%
Ear Swelling (units ± SEM), increase in ear thickness from day 5 to day 6 ([1]; Table 3, 20.0 mg/kg oral): 11.80 ± 1.03 10^-4 inches

Cc1ccc2nc(-c3ccc(-c4ccccc4)cc3)c(C)c(C(=O)O)c2c1 [Example 5]
inhibition in vivo at 20 mg/kg [1, 7]: 53.4%
Ear Swelling (units ± SEM), increase in ear thickness from day 5 to day 6 ([1]; Table 3, 20.0 mg/kg oral): 35.47 ± 2.31 10^-4 inches

Cc1c(-c2ccc(SC(C)C)cc2)nc2ccc(F)cc2c1C(=O)O [Example 6]
inhibition in vivo at 20 mg/kg [1, 7]: 21.1%
Ear Swelling (units ± SEM), increase in ear thickness from day 5 to day 6 ([1]; Table 3, 20.0 mg/kg oral): 58.20 ± 4.63 10^-4 inches
